Assay results reported in the NIST ThermoML archive (doi:10.1021/je5010214).
± gives the expanded uncertainty stated by the source.

Conditions: Liquid, Vibrating tube method

CCCCCCC [heptane]
Conditions	mass density [kg/m3]
323.15 K, 34081 kPa	690.434 ± 0.95
323.15 K, 35113 kPa	691.624 ± 0.95
323.15 K, 37953 kPa	693.659 ± 0.97
323.15 K, 42011 kPa	696.516 ± 0.99
323.15 K, 48025 kPa	700.814 ± 1
323.15 K, 49934 kPa	702.105 ± 1
323.15 K, 52114 kPa	703.681 ± 1.1
323.15 K, 54964 kPa	705.509 ± 1.1
323.15 K, 58045 kPa	707.475 ± 1.1
323.15 K, 60050 kPa	708.827 ± 1.1
323.15 K, 62131 kPa	710.008 ± 1.1
323.15 K, 64999 kPa	711.842 ± 1.1
323.16 K, 920.7 kPa	659.343 ± 0.82
323.16 K, 27958 kPa	685.975 ± 0.92
323.16 K, 30055 kPa	687.083 ± 0.93
323.16 K, 33067 kPa	689.946 ± 0.94
323.16 K, 40047 kPa	695.097 ± 0.98
323.16 K, 44937 kPa	698.783 ± 1
323.16 K, 66131 kPa	712.551 ± 1.1
328.15 K, 100.8 kPa	653.868 ± 0.81
328.15 K, 289.9 kPa	654.182 ± 0.81
328.15 K, 897.5 kPa	654.815 ± 0.82
328.15 K, 994.1 kPa	655.012 ± 0.82
328.15 K, 1988.8 kPa	656.162 ± 0.82
328.15 K, 2996.7 kPa	657.408 ± 0.82
328.15 K, 5013.4 kPa	659.794 ± 0.83
328.15 K, 6974.9 kPa	662.023 ± 0.83
328.15 K, 9017 kPa	664.204 ± 0.84
328.15 K, 10040 kPa	665.257 ± 0.84
328.15 K, 24924 kPa	679.489 ± 0.91
328.15 K, 27979 kPa	682.036 ± 0.92
328.15 K, 29958 kPa	683.395 ± 0.93
328.15 K, 32060 kPa	685.102 ± 0.94
328.15 K, 33066 kPa	685.969 ± 0.95
328.15 K, 33107 kPa	685.992 ± 0.95
328.15 K, 34013 kPa	687.01 ± 0.95
328.15 K, 35030 kPa	687.796 ± 0.96
328.15 K, 38010 kPa	690.025 ± 0.97
328.15 K, 39969 kPa	691.415 ± 0.98
328.15 K, 41959 kPa	692.865 ± 1
328.15 K, 44953 kPa	695.094 ± 1
328.15 K, 47978 kPa	697.371 ± 1
328.15 K, 49926 kPa	698.804 ± 1
328.15 K, 51997 kPa	700.259 ± 1.1
328.15 K, 54947 kPa	702.284 ± 1.1
328.15 K, 57939 kPa	704.221 ± 1.1
328.15 K, 59991 kPa	705.64 ± 1.1
328.15 K, 61982 kPa	707.057 ± 1.1
328.15 K, 65032 kPa	708.835 ± 1.1
328.15 K, 66046 kPa	709.499 ± 1.1
328.16 K, 501 kPa	654.211 ± 0.82
328.16 K, 12210 kPa	667.562 ± 0.85
328.16 K, 15055 kPa	670.204 ± 0.86
328.16 K, 18061 kPa	673.216 ± 0.88
328.16 K, 20279 kPa	675.247 ± 0.89
328.16 K, 22013 kPa	676.775 ± 0.89
333.15 K, 100.4 kPa	649.302 ± 0.81
333.15 K, 532.6 kPa	649.653 ± 0.82
333.15 K, 897.8 kPa	650.259 ± 0.82
333.15 K, 1987.2 kPa	651.687 ± 0.82
333.15 K, 3023.4 kPa	653.063 ± 0.82
333.15 K, 4997.4 kPa	655.338 ± 0.83
333.15 K, 7002.4 kPa	657.844 ± 0.83
333.15 K, 9032 kPa	660.047 ± 0.84
333.15 K, 10210 kPa	661.268 ± 0.84
333.15 K, 15008 kPa	666.206 ± 0.86
333.15 K, 22034 kPa	672.882 ± 0.89
333.15 K, 28040 kPa	678.188 ± 0.92
333.15 K, 30016 kPa	679.579 ± 0.93
333.15 K, 32067 kPa	681.185 ± 0.94
333.15 K, 32977 kPa	681.946 ± 0.95
333.15 K, 34086 kPa	683.474 ± 0.96
333.15 K, 35075 kPa	684.235 ± 0.96
333.15 K, 37894 kPa	686.324 ± 0.98
333.15 K, 40111 kPa	687.848 ± 0.99
333.15 K, 41947 kPa	689.191 ± 1
333.15 K, 44974 kPa	691.567 ± 1
333.15 K, 47936 kPa	693.899 ± 1
333.15 K, 49920 kPa	695.372 ± 1
333.15 K, 51953 kPa	696.893 ± 1.1
333.15 K, 54876 kPa	699.008 ± 1.1
333.15 K, 58057 kPa	700.988 ± 1.1
333.15 K, 59993 kPa	702.482 ± 1.1
333.15 K, 62049 kPa	703.927 ± 1.1
333.15 K, 64970 kPa	705.65 ± 1.1
333.15 K, 66005 kPa	706.481 ± 1.1
333.16 K, 303.5 kPa	649.622 ± 0.81
333.16 K, 1003 kPa	650.554 ± 0.82
333.16 K, 12011 kPa	663.322 ± 0.85
333.16 K, 17992 kPa	669.217 ± 0.88
333.16 K, 20036 kPa	671.108 ± 0.89
333.16 K, 25027 kPa	675.678 ± 0.91
333.16 K, 33073 kPa	682.004 ± 0.95
338.15 K, 100.4 kPa	644.915 ± 0.81
338.15 K, 309.8 kPa	645.161 ± 0.82
338.15 K, 561.6 kPa	645.341 ± 0.82
338.15 K, 898.5 kPa	645.924 ± 0.82
338.15 K, 1014.1 kPa	646.212 ± 0.82
338.15 K, 2936.1 kPa	648.694 ± 0.82
338.15 K, 5018.6 kPa	651.205 ± 0.83
338.15 K, 10034 kPa	657.126 ± 0.84
338.15 K, 14885 kPa	662.203 ± 0.86
338.15 K, 17956 kPa	665.481 ± 0.88
338.15 K, 19927 kPa	667.369 ± 0.89
338.15 K, 22041 kPa	669.319 ± 0.9
338.15 K, 25026 kPa	672.169 ± 0.91
338.15 K, 29994 kPa	676.134 ± 0.94
338.15 K, 32882 kPa	678.515 ± 0.95
338.15 K, 33937 kPa	679.921 ± 0.96
338.15 K, 35012 kPa	680.879 ± 0.96
338.15 K, 39987 kPa	684.582 ± 0.99
338.15 K, 41990 kPa	686.092 ± 1
338.15 K, 44978 kPa	688.463 ± 1
338.15 K, 47971 kPa	690.744 ± 1
338.15 K, 49999 kPa	692.38 ± 1.1
338.15 K, 52127 kPa	693.976 ± 1.1
338.15 K, 57940 kPa	697.82 ± 1.1
338.15 K, 60014 kPa	699.459 ± 1.1
338.15 K, 65012 kPa	702.688 ± 1.1
338.15 K, 66057 kPa	703.55 ± 1.1
338.16 K, 2000.2 kPa	647.409 ± 0.82
338.16 K, 6917.3 kPa	653.552 ± 0.83
338.16 K, 9046.9 kPa	656.063 ± 0.84
338.16 K, 11959 kPa	659.361 ± 0.85
338.16 K, 27976 kPa	674.704 ± 0.93
338.16 K, 31949 kPa	677.899 ± 0.95
338.16 K, 32882 kPa	678.499 ± 0.95
338.16 K, 37962 kPa	683.24 ± 0.98
338.16 K, 54992 kPa	696.066 ± 1.1
338.16 K, 62074 kPa	700.918 ± 1.1
343.15 K, 105.1 kPa	640.758 ± 0.82
343.15 K, 297.3 kPa	640.918 ± 0.82
343.15 K, 520.3 kPa	641.218 ± 0.82
343.15 K, 911.7 kPa	641.765 ± 0.82
343.15 K, 1017.7 kPa	641.938 ± 0.82
343.15 K, 1994.6 kPa	643.242 ± 0.82
343.15 K, 2968.3 kPa	644.553 ± 0.82
343.15 K, 4994.8 kPa	647.152 ± 0.83
343.15 K, 6976.6 kPa	649.726 ± 0.83
343.15 K, 9002.6 kPa	652.141 ± 0.84
343.15 K, 10060 kPa	653.267 ± 0.85
343.15 K, 12024 kPa	655.625 ± 0.85
343.15 K, 14928 kPa	658.769 ± 0.87
343.15 K, 17975 kPa	661.975 ± 0.88
343.15 K, 19985 kPa	664 ± 0.89
343.15 K, 22033 kPa	666.001 ± 0.9
343.15 K, 25090 kPa	668.93 ± 0.91
343.15 K, 28045 kPa	671.724 ± 0.93
343.15 K, 30082 kPa	673.379 ± 0.94
343.15 K, 32170 kPa	675.296 ± 0.95
343.15 K, 33053 kPa	676.043 ± 0.96
343.15 K, 33097 kPa	676.076 ± 0.96
343.15 K, 35030 kPa	677.808 ± 0.97
343.15 K, 37943 kPa	680.185 ± 0.98
343.15 K, 40012 kPa	681.817 ± 0.99
343.15 K, 41972 kPa	683.353 ± 1
343.15 K, 44927 kPa	685.751 ± 1
